In a melting point compilation (Tetko et al.; mined from patent text by program, amines drawn as free bases though some values may be those of a salt):

| SMILES | melting point |
| --- | --- |
| OCCC(c1ccccc1)C(O)(c1ccccc1)c1ccc(O)cc1 (stereo not drawn) | 192 to 194 °C |
| CCN(CC)c1nc2ccccc2n2cnnc12 | 117 to 119 °C |
| Cc1cc([N+](=O)[O-])cc(C)c1-c1ccc(-c2c(C)cc([N+](=O)[O-])cc2C)o1 | 156 to 158 °C |
| O=C(NCCN1CCCC1)c1ccc(-c2ccc3nnn(Cc4ccc5ncccc5c4)c3n2)cc1 | 135 to 137 °C |
| O=C(O)CCC(=O)Oc1c(Cc2ccccc2)ccc2ccccc12 | 140 °C |
| CC(C)Oc1cc(-n2c(=O)cc(C(F)(F)F)n(C)c2=O)c(F)cc1Cl | 90 to 93 °C |
| CCc1ccc(-c2ccc3c(c2)C=C(C(=O)O)CCS3(=O)=O)cc1 | 260 to 265 °C |
| CCOC(=O)C1C(=O)Cc2ccccc21 (stereo not drawn) | 58 to 61 °C |
| OP(O)C(NC(c1ccccc1)c1ccccc1)c1ccc2c(c1)OCO2 (stereo not drawn) | 194 to 195 °C |
| CN1Cc2cscc2Nc2ccccc21 | 110 to 112 °C |
| O=c1c2ccccc2nc(-c2sc(Nc3ccccc3)nc2-c2ccccc2)n1-c1ccc(Cl)cc1 | 218 to 222 °C |
| CC(C)(C)c1cccc(S(=O)(=O)n2c(C(O)c3ccc(C(=O)O)cc3)cc3cc(C(F)(F)F)ccc32)c1 (racemic) | 110 °C |
| Cn1cc(Oc2ccccc2)c(=O)c(-c2ccccc2)c1 | 176 to 177 °C |
| CCc1nnc2c(NC3CCCC3)nc3ccccc3n12 | 166 to 168 °C |
| CCOC1CC2(C)C(CCC3C4CCC(C(=O)OC)C4(C)CC(NCCC(C)C)C32)CC1O (stereo not drawn) | 122 to 124 °C |
| CCCCOc1ccc(S(=O)(=O)NC(=NO)Nc2ccc(Cl)cc2)cc1 | 175 to 176 °C |
| CC(=O)N(CCCC(=O)O)C1CCCc2ccccc21 (stereo not drawn) | 141 to 142 °C |
| CCCCCCCCCOc1ccc(F)c(C(N)=O)c1Cl | 64 to 66 °C |
| C#CCSc1nc(=O)n(CC#C)cc1F | 135 °C |
| COc1ccc(C(=O)Nc2ccc(C(C)(C)CNC(=O)c3nn(C)cc3Br)cc2)cc1OC | 112 to 113 °C |
| CCC(=N)c1c(O)cc(-c2ccccc2)n(C)c1=O | 145 to 147 °C |
| CCn1c(=O)c(C(N)=O)c(O)c2ccc(C)nc21 | 240 to 242 °C |
| CCOC(=O)Cc1ccc2c(c1)C(=O)c1ccccc1CS2 | 98 to 100 °C |
| O=C1NCc2cc(-c3cnc4[nH]c(=O)n(CC5CCCCC5)c4n3)ccc21 | 337 to 339 °C |
| CC1(CN=[N+]=[N-])SC2C(NC(=O)Cc3ccccc3)C(=O)N2C1C(=O)OCC(Cl)(Cl)Cl (stereo not drawn) | 105 to 106 °C |

| SMILES | melting point |
| --- | --- |
| CCOC(=O)c1cn(-c2cnc(Cl)c(N)c2)c2c(Cl)c(F)c(F)cc2c1=O | 233 to 236 °C |
| O=C(Nc1cccnc1)N1CCN(c2nccc(-c3cccc(F)c3)n2)CC1 | 210 to 211 °C |
| COc1ccc(C(CCCCC(=O)O)C2=CC(=O)c3ccccc3C2=O)cc1 (stereo not drawn) | 141 to 143 °C |
| CCOC(=O)C1=CC(CF)(CF)Oc2ccc([N+](=O)[O-])cc21 | 96 to 98 °C |
| CCCCCC1CCc2cc(C(=O)Oc3ccc(C#N)cc3)ccc2C1 (stereo not drawn) | 72.7 to 73.3 °C |
| CCOC(=O)C(=O)NCC(=O)C(C)(C)C | 82 to 85 °C |
| COc1cc(C#N)c(C(C)=O)cc1[N+](=O)[O-] | 224 to 226 °C |
| CC(C)OP(=O)(OC(C)C)C(=CC=Cc1ccccc1)P(=O)(OC(C)C)OC(C)C | 103 to 104 °C |
| Cc1ccc(S(=O)(=O)OCC2Cn3c(nc4c(C)cccc43)-c3cccc(Cl)c3O2)cc1 (stereo not drawn) | 168 to 169 °C |
| COc1ccc(O)c(C(=O)Nc2cc(Cl)cc(Cl)c2)c1 | 230 to 232 °C |
| CCOc1cc2c(cc1OC)C(c1ccc(C(=O)N(C(C)C)C(C)C)cc1)=N[C@@H]1CCOC[C@H]21 | 116 to 120 °C |
| COC(=O)C(C)n1nnc2ccc(OCc3ccccc3)cc21 (stereo not drawn) | 88 to 91.5 °C |
| Nc1ccn([C@@H]2O[C@H](CO)[C@@H](O)/C2=C\F)c(=O)n1 | 166 °C |
| CC(C)c1cccc(C(C)C)c1NC(=O)CN1CCN(CCSc2nc3cccc(C(C)(C)C)c3o2)CC1 | 138 to 140 °C |
| CNc1nnc(-c2cccc(F)c2)c(=O)n1NC | 173 to 174 °C |
| CC1Sc2c(C(=O)O)c(=O)c3cc(F)c(N4CCC(N(C)C)C4)c(Cl)c3n21 (stereo not drawn) | 161 to 162 °C |
| CC(=O)NC1(c2ccc(Cl)cc2)c2ccc(Cl)cc2-c2ncncc21 (stereo not drawn) | 238 to 241 °C |
| Oc1ccccc1C1OCCO1 | 67 to 70 °C |
| O=c1c2ccoc2c2cccnc2n1-c1ccccc1 | 245 to 247 °C |
| CCOC(=O)c1cnn(-c2c(Cl)cc(C(F)(F)F)cc2Cl)c1 | 57 to 59 °C |
| CC1(C(=O)Nc2ccc(Oc3ccc(Cl)cc3)c(C(F)(F)F)c2)CC1 | 115 to 117 °C |
| C[C@H](CSC(=O)c1ccccc1)C(=O)N(CC(=O)OC(C)(C)C)C1CCCC1 | 54 to 56 °C |
| CCc1cn2ccccc2c1S(=O)(=O)c1ccc(OCCCn2ccnc2)cc1 | 130 to 131 °C |
| CCCCCCCCCCSc1ccc2c3c(cccc13)C(=O)N(CC(=O)O)C2=O | 137 to 140 °C |
| COc1nc(NC(=O)NS(=O)(=O)c2cc(Cl)ccc2C(=O)OC(C)C)nc(C(F)(F)F)n1 | 160 to 163 °C |

| SMILES | melting point |
| --- | --- |
| O=C(NCCO[N+](=O)[O-])Oc1ccccc1 | 61 to 62 °C |
| O=C(O)CCCCCn1c2ccccc2c(=O)c2ccccc21 | 167 °C |
| CC1=C(C(O)c2ccc3c(c2)CCN(C(N)=O)C3)C(C)(C)CC1 (stereo not drawn) | 68.6 to 69.6 °C |
| COC(=O)[C@H](CCC(=O)NCCc1ccc(O)c(OCc2ccccc2)c1)NC(=O)OCc1ccccc1 | 110 to 115 °C |
| CCCCC1(CCCC)CCc2c(OCc3ccc4ccccc4n3)ccc(F)c2C1O (stereo not drawn) | 128 to 129 °C |
| OC(CCN1CC=C(c2ccccc2)CC1)c1ccc(CCc2ccc(Cl)cc2)cc1 (stereo not drawn) | 158 to 160 °C |
| CCCCC[C@H]1CC[C@H](CSc2cc(O)c3c(c2N)C(=O)c2ccccc2C3=O)CC1 | 129 to 130 °C |
| OC(CN1CCNCC1)C(O)(c1ccccc1)C1CCCC1 (stereo not drawn) | 50 °C |
| c1ccc2c(c1)ncc1nc(-c3nnn[nH]3)cn12 | 320 to 322 °C |
| CCCCC(=O)c1ccc(O)c(Cl)c1Cl | 107 to 110 °C |
| CCOC(=O)CCCCC(NS(=O)(=O)c1ccccc1)c1ccc2ccccc2c1 (stereo not drawn) | 81 to 84 °C |
| Nc1ncnc2c1ncn2C(c1ccccc1)(c1ccccc1)c1ccccc1 | 260 to 262 °C |
| COc1ccc(C(=O)c2ccc(NC(C)=O)cc2)cc1 | 160 to 162 °C |
| C=CCN1CC(OC(=O)c2ccccc2)CC1=O (stereo not drawn) | 56 to 67 °C |
| COCCO[C@H]1c2ccn3c(C)c(C)nc3c2N[C@@H](c2ccccc2)[C@@H]1O | 130 to 131 °C |
| CCc1cc(CCCOc2c(C)cc(C#N)cc2C)on1 | 50 to 51 °C |
| N#CCC(=O)Nc1cc(N)ccc1[N+](=O)[O-] | 218 to 220 °C |
| O=C(Nc1cccnc1)c1c(OCC2CC2)ccc2oc3ccccc3c12 | 238 to 240 °C |
| COc1cc(-c2nc(-c3cc(OC)c(OCc4ccccc4)c(OC)c3)c(-c3cc(OC)c(OCc4ccccc4)c(OC)c3)o2)cc(OC)c1OCc1ccccc1 | 80 to 120 °C |
| C#CCOc1cc(-c2ncnc(C(Cl)Cl)c2Cl)c(F)cc1Cl | 86 to 88 °C |
| CCCCN1CCC(CNC(=O)c2cc(Cl)c(N)n3cc(C)nc23)CC1 | 188 to 191 °C |
| Cc1ccc2c(Cl)cc(I)c(O)c2n1 | 85 to 93 °C |
| O=C1c2cccc3c4c(cc(c23)C(=O)N1O)OCOC4 | > 350 °C |
| CC(=O)N1CCN(Cc2sccc2S(=O)(=O)N(C)c2cccc3cc(-c4nccs4)[nH]c23)CC1 | 242 °C |
| COc1ccsc1C1CCN(C[C@H](Cc2ccccc2)NC(=O)C2CCCCC2)CC1 | 92 to 94 °C |

| SMILES | melting point |
| --- | --- |
| CCCc1nc(C(O)C(C)C)c(C(N)=O)n1Cc1ccc(-c2ccccc2-c2nnn[nH]2)cc1 (stereo not drawn) | 153 to 157 °C |
| Cc1ccc(NC2CCCc3cc(C)cnc32)cc1 (stereo not drawn) | 83 to 85 °C |
| Fc1ccccc1-c1nc(Cl)nc2ccc(Cl)cc12 | 208 to 210 °C |
| CN1CCCC(Nc2nc3ccccc3[nH]2)CC1 (stereo not drawn) | 168 °C |
| CC(C)(C)OC(=O)N1CCN(c2nccc(Oc3ccc(NC(=O)c4cc(F)cc(N5CCCCC5)c4)c4ccccc34)n2)CC1 | 175 to 177 °C |
| COC1(c2cc(F)cc(Sc3ccc(/C(C)=N/O)c(OCc4ccccc4)c3)c2)CCOCC1 | 130 to 131 °C |
| O=C(O)C=c1sc2n(c1=O)Cc1ccccc1N=2 | 263 to 264 °C |
| Cc1sc(-c2ccc(F)cc2)nc1O | 173 to 174 °C |
| CC(C)(C)c1cc(C(C)(C)C)n(Cc2ccc(CO)cc2)n1 | 121 to 122 °C |
| O=C1NC(=O)C(=Cc2ccc(OCc3cccc(Cl)c3)cc2)S1 | 182 to 183 °C |
| COc1cc(C2C3=C(COC3=O)Nc3ccc4cc(C)[nH]c4c32)ccc1F (stereo not drawn) | 198 to 199 °C |
| COC(=O)CCSc1cc(C(C)(C)C)c(O)c(C(C)(C)C)c1 | 63.5 to 65.5 °C |
| CCCSc1cc(C(=O)O)cc(S(N)(=O)=O)c1-c1ccccc1 | 85 to 87 °C |
| O=C(O)C=C(c1ccccc1)c1ccc([N+](=O)[O-])cc1 | 188 to 189 °C |
| O=[N+]([O-])c1ccccc1NCc1ccccc1 | 65 to 67 °C |
| O=C(O)c1cc(Cn2cc(C3c4ccccc4C=Cc4ccccc43)c(=S)[nH]c2=O)ccc1Cc1ccccc1 | 135 °C |
| COc1ccccc1CC(=O)N1C[C@@H]2SCCC(c3ccccc3)(c3ccccc3)[C@@H]2C1 (racemic) | 172 °C |
| CCC(CC)N(Cc1ccc(C#N)cc1)S(=O)(=O)c1ccc(Cl)cc1 | 123 to 125 °C |
| CCOP(=O)(/C=C/c1cn(-c2ccccc2)nc1OCc1ccc(OCc2nc(-c3cccc(C#N)c3)oc2C)c(OC)c1)OCC | 147 to 148 °C |
| Fc1ccc(-c2[nH]nc(Nc3ccccc3)c2-c2ccncc2)cc1 | 218 to 219 °C |
| CC(C)(C)OC(=O)N1CCC(Nc2ncc3c(n2)-c2ccccc2C(c2ccc(Cl)c(Cl)c2)C3)CC1 (stereo not drawn) | 94 to 96 °C |
| COc1ccc(C(=O)Cc2ccccc2)cc1OC1CCCC1 | 117 to 119 °C |
| S=C(NCCCN1CCN(Cc2ccc(Cl)cc2)CC1)Nc1ccccc1 | 155 to 156 °C |
